Data: US20230078425A1, “COMPOSITIONS AND METHODS FOR GENERATING SYNTHETIC LETHALITY IN TUMORS” (Engine Biosciences Pte. Ltd., priority 2021, published 2023)

Test system: LS180 cells
Experiment: CombiGEM CRISPR/Cas9 double-knockout screen (gene A biomarker + PKMYT1), barcode LFC and GI score, LS180
Format: cell-based, human
Text: A combinatorial genetic en masse (CombiGEM™) screen is used to validate synthetic lethal pairs identified by the computational methods described in Example 1. Methods of performing CombiGEM™ are known in the art and described in U.S. Pat. No. 9,315,806; Bari, et al. (2017) Scientific Reports 7:6993; Wong, et al (2016) PNAS 113:2544-2549, each of which are incorporated by reference in their entirety. This example provides an overview of the pooled screening method to validate predicted synthetic lethal pairs of gene A biomarkers and gene B targets.
Briefly, oligonucleotide synthesis is used to generate a library of barcoded gRNA target sequences directed to gene A biomarkers (“gene A gRNA library”) and a library of barcoded gRNA target sequences directed to gene B targets (“gene B gRNA library”). […]
The barcoded sgRNA lentiviral libraries are evaluated in Cas9-expressing cancer cell lines (e.g., HT29 and/or LS180 cell lines). […] Genomic DNA is harvested and used for quantification of the integrated barcodes using a combination of barcode amplification by PCR and sequencing by NGS. […] The barcode reads are normalized per million reads for each sample. To measure cell proliferation, barcode count ratios of normalized barcode reads were calculated as fold changes. […]

## IGF1
Gene interaction score = observed minus expected (gene A LFC + gene B LFC) double-knockout LFC, gene B = PKMYT1, LS180 cells
  GI: −1.07
log2 fold-change of barcode counts, double knockout of gene A biomarker and PKMYT1, Cas9-expressing LS180 cells
  LFC (gene A * B): −1.68
